Columns and labels:
male C57BL/6 mice = assay: Blood glucose lowering abilities after single oral administration in male C57BL/6 mouse; assay type: in vivo; settings: 30 mg/kg single oral dose, fed ad libitum
Experimental: The glucokinase activators according to the present invention were orally administered in a single dose in the amount of 30 mg/kg body weight to male C57BL/6 mice for 24 h. The media were selected depending on their solubilities from distilled water, pH 1.2 HCl buffer solution, 0.5% methyl cellulose distilled water solution, 10% Gelucire/pH 1.2 HCl buffer solution (1/1). The glucokinase activators were dissolved in the selected media to the medium volume of 0.1 ml/10 g body weight on the basis of the body weight measured on the day of experiment.
Blood glucose was measured by cutting the tail vein before 1 h (time=−1) from the measurement of blood glucose, collecting blood from the tail vein at immediately before the administration of the glucokinase activator (time=0), and at 1, 2, 4, 8, 12, 24 h after administration, loading on the automatic glucometer (Accu-Chek® Active, Roche, USA), dropping 5 μl of the blood to a yellow pad of the Accu-Chek® Active glucose strip, and recording the measured value.
Mice involved in the experiment were divided into groups (n=10, in the case of media group n=4) on one day before the experiment so that each group has uniform average and standard deviation for blood glucose after 4 hour fasting. Mice were fed ad libitum.
The blood glucose lowering abilities in % of the representative compounds with respect to the 100% of media control were shown in the following Table 2.

[1] = system: Glucokinase known as hexokinase IV (human GK isoform 1, pancreas form and human GK isoform 2, liver form); assay: Glucokinase enzymatic activity assay (G6PDH-coupled, NADH absorbance at 340 nm); assay type: biochemical; settings: 5 mM glucose, 1 mM ATP, 37 nM GK, 10 min at room temperature
Summary of the method: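 His-tagged human GK isoform 1 (pancreas) or 2 (liver), E. coli-expressed and Ni-purified, 37 nM, with 5 mM glucose, 1 mM ATP, 1 mM NAD and G6PDH in 25 mM Hepes/KCl, 2 mM MgCl2, 1 mM DTT. Ran 10 min at room temperature, read as NADH at 340 nm. AC1.5 is the compound concentration giving 1.5-fold activity.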

Row | SMILES | Hypoglycemic ability (% medium): blood glucose AUC for 24 h with respect to 100% of media control (male C57BL/6 mice; medium: distilled water) [%] | AC1.5 (the compound concentration at which the enzymatic activity is increased by 1.5 times) [1] [nM] | Hypoglycemic ability (% medium): blood glucose AUC for 24 h with respect to 100% of media control (male C57BL/6 mice; medium: 0.5% methyl cellulose distilled water solution) [%]
1 | O=C(O)C[C@@H]1CSC(c2cc3cc(Cl)cc(NC4CCCC4)c3[nH]2)=N1 [Example 27, [(R)-2-(5-chloro-7-cyclopentylamino-1H-indol-2-yl)-4,5-dihydro-thiazol-4-yl]acetic acid] | 75 | 4 | 
2 | O=C(O)C[C@@H]1CSC(c2cc3cc(Br)cc(NC4CCCC4)c3[nH]2)=N1 [Example 33, [(R)-2-(5-bromo-7-cyclopentylamino-1H-indol-2-yl)-4,5-dihydro-thiazol-4-yl]acetic acid] | 81 |  | 
3 | O=C(O)C[C@@H]1CSC(c2cc3cc(F)cc(NC4CCCC4)c3[nH]2)=N1 [Example 37, [(R)-2-(7-cyclopentylamino-5-fluoro-1H-indol-2-yl)-4,5-dihydro-thiazol-4-yl]acetic acid] | 67 |  | 
4 | CCOC(=O)C[C@@H]1CSC(c2cc3cc(F)cc(NC4CCCC4)c3[nH]2)=N1 [Example 38, [(R)-2-(7-cyclopentylamino-5-fluoro-1H-indol-2-yl)-4,5-dihydro-thiazol-4-yl]acetic acid ethyl ester] |  | 18 | 71
5 | O=C(O)C[C@@H]1CSC(c2cc3cccc(NC4CCCC4)c3[nH]2)=N1 [Example 42, [(R)-2-(7-cyclopentylamino-1H-indol-2-yl)-4,5-dihydro-thiazol-4-yl]acetic acid] | 57 |  | 
6 | CCOc1cc(NC2CCCC2)c2[nH]c(C3=N[C@H](CC(=O)O)CS3)cc2c1 [Example 52, [(R)-2-(7-cyclopentylamino-5-ethoxy-1H-indol-2-yl)-4,5-dihydro-thiazol-4-yl]acetic acid] | 62 | 20 | 
7 | O=C(O)C[C@@H]1CSC(c2cc3cc(Oc4ccccc4)cc(NC4CCCC4)c3[nH]2)=N1 [Example 54, [(R)-2-(7-cyclopentylamino-5-phenoxy-1H-indol-2-yl)-4,5-dihydro-thiazol-4-yl]-acetic acid] | 52 | 18 | 
8 | Cc1cc(NC2CCCC2)c2[nH]c(C3=N[C@H](CC(=O)O)CS3)cc2c1 [Example 61, [(R)-2-(7-cyclopentylamino-5-methyl-1H-indol-2-yl)-4,5-dihydro-thiazol-4-yl]-acetic acid] | 54 | 11 | 
9 | Clc1cc(NC2CCCC2)c2[nH]c(C3=N[C@H](CCN4CCNCC4)CS3)cc2c1 [Example 96, {5-chloro-2-[(R)-4-(2-piperazin-1-yl-ethyl)-4,5-dihydro-thiazol-2-yl]-1H-indol-7-yl}-cyclopentyl-amine] | 81 | 5 | 
10 | O=C(CO)N1CCN(CC[C@@H]2CSC(c3cc4cc(Cl)cc(NC5CCCC5)c4[nH]3)=N2)CC1 [Example 99, 1-(4-{2-[(R)-2-(5-chloro-7-cyclopentylamino-1H-indol-2-yl)-4,5-dihydro-thiazol-4-yl]-ethyl}-piperazin-1-yl)-2-hydroxy-ethanone] | 72 | 5 | 
11 | Cc1cc(NC2CCCC2)c2[nH]c(C3=N[C@H](CCC(=O)O)CS3)cc2c1 [Example 158, 3-[(R)-2-(7-cyclopentylamino-5-methyl-1H-indol-2-yl)-4,5-dihydro-thiazol-4-yl]-propionic acid] | 66 | 16 | 
12 | O=C(O)CC[C@@H]1CSC(c2cc3cc(Oc4ccccc4)cc(NC4CCCC4)c3[nH]2)=N1 [Example 159, 3-[(R)-2-(7-cyclopentylamino-5-phenoxy-1H-indol-2-yl)-4,5-dihydro-thiazol-4-yl]-propionic acid] | 63 | 17 | 
13 | O=C(O)CC[C@@H]1CSC(c2cc3cccc(NC4CCCC4)c3[nH]2)=N1 [Example 164, 3-[(R)-2-(7-cyclopentylamino-1H-indol-2-yl)-4,5-dihydro-thiazol-4-yl]-propionic acid] | 73 | 25 | 
14 | CCOc1cc(NC2CCCC2)c2[nH]c(C3=N[C@H](CCC(=O)O)CS3)cc2c1 [Example 167, 3-[(R)-2-(7-cyclopentylamino-5-ethoxy-1H-indol-2-yl)-4,5-dihydro-thiazol-4-yl]-propionic acid] | 64 | 28 | 
15 | O=C(O)C[C@@H]1CSC(c2cc3cccc(Oc4ccccc4)c3[nH]2)=N1 [Example 174, [(R)-2-(7-phenoxy-1H-indol-2-yl)-4,5-dihydro-thiazol-4-yl]-acetic acid] | 51 |  | 
16 | CN(C)CC[C@@H]1CSC(c2cc3cccc(Oc4ccccc4)c3[nH]2)=N1 [Example 178, dimethyl-{2-[(R)-2-(7-phenoxy-1H-indol-2-yl)-4,5-dihydro-thiazol-4-yl]ethyl}-amine] |  | 21 | 

Source: patent publication US8309586B2, “Glucokinase activators and pharmaceutical compositions containing the same as an active ingredient” (LG Life Sciences Ltd., priority 2007, dated 2012)
